Reference: a compilation of properties of binary mixtures (doi:10.1021/acs.jced.9b00738)

Assay: xn = mol fraction of the nth substance listed
Details: 100 kPa

CCOC(=O)OCC + CCCC[N+]1(C)CCCC1.O=S(=O)([N-]S(=O)(=O)C(F)(F)F)C(F)(F)F
x2 = 0
Details | viscosity [mPa·s]
293.15 K | 0.8
298.15 K | 0.75
303.15 K | 0.7
308.15 K | 0.65
313.15 K | 0.61
318.15 K | 0.58

CCCC[N+]1(C)CCCC1.O=S(=O)([N-]S(=O)(=O)C(F)(F)F)C(F)(F)F + CCOC(=O)OCC
Details | electrical conductivity [S/m] | viscosity [mPa·s]
293.15 K, x1 = 0.1506 | 0.443 | 2.76
293.15 K, x1 = 0.25 | 0.584 | –
293.15 K, x1 = 0.2973 | 0.613 | 6.62
293.15 K, x1 = 0.349 | 0.608 | 8.69
293.15 K, x1 = 0.4 | 0.531 | 11.2
293.15 K, x1 = 0.6002 | 0.34 | 29.01
293.15 K, x1 = 0.6985 | 0.288 | 41
293.15 K, x1 = 0.8006 | 0.254 | 55.9
293.15 K, x1 = 1 | 0.216 | 98
298.15 K, x1 = 0.1001 | 0.372 | 1.65
298.15 K, x1 = 0.1506 | 0.494 | 2.49
298.15 K, x1 = 0.2 | 0.586 | 3.49
298.15 K, x1 = 0.25 | 0.646 | –
298.15 K, x1 = 0.2973 | 0.701 | 5.86
298.15 K, x1 = 0.349 | 0.693 | 7.74
298.15 K, x1 = 0.4 | 0.622 | 9.95
298.15 K, x1 = 0.4998 | 0.514 | 15.45
298.15 K, x1 = 0.6002 | 0.425 | 24.22
298.15 K, x1 = 0.6985 | 0.365 | 34.1
298.15 K, x1 = 0.8006 | 0.329 | 46
298.15 K, x1 = 0.8934 | 0.3 | 58.6
298.15 K, x1 = 1 | 0.275 | 76.6
303.15 K, x1 = 0.1001 | 0.401 | 1.5
303.15 K, x1 = 0.1506 | 0.543 | 2.26
303.15 K, x1 = 0.2973 | 0.785 | 5.21
303.15 K, x1 = 0.349 | 0.782 | 7
303.15 K, x1 = 0.4 | 0.714 | 8.78
303.15 K, x1 = 0.4998 | 0.601 | 13.25
303.15 K, x1 = 0.6002 | 0.509 | 20.02
303.15 K, x1 = 0.6985 | 0.438 | 28.53
303.15 K, x1 = 0.8006 | 0.395 | 38
303.15 K, x1 = 0.8934 | 0.371 | 46.9
303.15 K, x1 = 1 | 0.34 | 61.6
308.15 K, x1 = 0.1001 | 0.436 | 1.35
308.15 K, x1 = 0.1506 | 0.591 | 2.03
308.15 K, x1 = 0.2 | 0.703 | 2.85
308.15 K, x1 = 0.25 | 0.8 | –
308.15 K, x1 = 0.2973 | 0.876 | 4.79
308.15 K, x1 = 0.349 | 0.867 | 6.3
308.15 K, x1 = 0.4 | 0.803 | 7.89
308.15 K, x1 = 0.6002 | 0.612 | 17
308.15 K, x1 = 0.6985 | 0.534 | 23.82
308.15 K, x1 = 0.8006 | 0.485 | 32.02
308.15 K, x1 = 1 | 0.411 | 50.8
313.15 K, x1 = 0.1506 | 0.637 | 1.83
313.15 K, x1 = 0.2 | 0.766 | 2.56
313.15 K, x1 = 0.2973 | 0.968 | 4.33
313.15 K, x1 = 0.349 | 0.957 | 5.76
313.15 K, x1 = 0.4 | 0.908 | 7.11
313.15 K, x1 = 0.4998 | 0.804 | 10.46
313.15 K, x1 = 0.6002 | 0.73 | 14.69
313.15 K, x1 = 0.6985 | 0.649 | 19.99
313.15 K, x1 = 0.8006 | 0.588 | 26
313.15 K, x1 = 0.8934 | 0.535 | 31.7
313.15 K, x1 = 1 | 0.491 | 41.6
318.15 K, x1 = 0.1001 | 0.501 | 1.09
318.15 K, x1 = 0.1506 | 0.684 | 1.64
318.15 K, x1 = 0.2 | 0.83 | 2.28
318.15 K, x1 = 0.25 | 1 | –
318.15 K, x1 = 0.2973 | 1.05 | 3.9
318.15 K, x1 = 0.349 | 1.05 | 5.21
318.15 K, x1 = 0.4 | 1 | 6.45
318.15 K, x1 = 0.4998 | 0.903 | 9.01
318.15 K, x1 = 0.6002 | 0.831 | 13
318.15 K, x1 = 0.6985 | 0.746 | 17.01
318.15 K, x1 = 0.8006 | 0.673 | 22
318.15 K, x1 = 0.8934 | 0.62 | 26.75
318.15 K, x1 = 1 | 0.581 | 34.6
323.15 K, x1 = 0.1506 | 0.742 | 1.46
323.15 K, x1 = 0.2 | 0.901 | 2.05
323.15 K, x1 = 0.25 | 1.1 | –
323.15 K, x1 = 0.2973 | 1.14 | 3.52
323.15 K, x1 = 0.349 | 1.15 | 4.63
323.15 K, x1 = 0.4 | 1.1 | 5.79
323.15 K, x1 = 0.4998 | 1.02 | 8.05
323.15 K, x1 = 0.6002 | 0.935 | 11.01
323.15 K, x1 = 0.6985 | 0.865 | 14.4
323.15 K, x1 = 0.8934 | 0.745 | 22.8
323.15 K, x1 = 1 | 0.681 | 29.46
